Laboratory results: patent US10806871B2, “Inhalable dry powders” (priority 2012, dated 2020)

Assay: not given
Details: at 20 C; cited from earlier work

Row | Structure (SMILES) | solubility
1 | OC[C@H]1O[C@H](O[C@H]2O[C@H](CO)[C@@H](O)[C@H](O)[C@H]2O)[C@H](O)[C@@H](O)[C@@H]1O [trehalose] | 68.9 g per 100 g of water

Same assay, conditions: cited from earlier work

Row | Structure (SMILES) | solubility in water
2 | OC[C@@H](O)[C@@H](O)[C@H](O)[C@H](O)CO [mannitol] | about 182 g/L

Assay: not given
Details: listing, cf. PCT Publication WO/2004/062643; cited from earlier work

Row | Structure (SMILES) | Solubility In Water
3 | Cc1nnc2n1-c1ccc(Cl)cc1C(c1ccccc1)=NC2 [Alprazolam] | Insoluble
4 | CCOC(=O)C1=C(COCCN)NC(C)=C(C(=O)OC)C1c1ccccc1Cl (centres unmarked) [Amlodipine] | Slightly
5 | COc1ccc(CCN2CCC(Nc3nc4ccccc4n3Cc3ccc(F)cc3)CC2)cc1 [Astemizol] | Insoluble
6 | CC(=O)OC[C@H]1O[C@@H]([S-])[C@H](OC(C)=O)[C@@H](OC(C)=O)[C@@H]1OC(C)=O.CCP(CC)CC.[Au+] [Auranofin] | Slightly soluble
7 | Cn1cnc([N+](=O)[O-])c1Sc1ncnc2nc[nH]c12 [Azathioprine] | Insoluble
8 | CN1CCCC(n2nc(Cc3ccc(Cl)cc3)c3ccccc3c2=O)CC1 (centres unmarked) [Azelastine] | Insoluble
9 | OC(CCN1CCCCC1)(c1ccccc1)C1CC2C=CC1C2 (centres unmarked) [Biperiden] | Sparingly soluble
10 | C=CCC1(CC(C)C)C(=O)NC(=O)NC1=O [Butalbital] | Insoluble
11 | NC(=O)N1c2ccccc2C=Cc2ccccc21 [Carbamazepine] | Insoluble
12 | C[C@@](Cc1ccc(O)c(O)c1)(NN)C(=O)O [Carbidopa] | Slightly
13 | CO/N=C(\C(=O)N[C@@H]1C(=O)N2C(C(=O)O)=C(COC(C)=O)CS[C@H]12)c1csc(N)n1 [Cefotaxime] | Sparingly
14 | COc1cc(N)c(Cl)cc1C(=O)NC1CCN(CCCOc2ccc(F)cc2)CC1OC (centres unmarked) [Cisapride] | Insoluble
15 | CC[C@H]1OC(=O)[C@H](C)[C@@H](O[C@H]2C[C@@](C)(OC)[C@@H](O)[C@H](C)O2)[C@H](C)[C@@H](O[C@@H]2O[C@H](C)C[C@H](N(C)C)[C@H]2O)[C@](C)(OC)C[C@@H](C)C(=O)[C@H](C)[C@@H](O)[C@]1(C)O [Clarithromycin] | Insoluble
16 | CN1CCC[C@@H]1CCO[C@](C)(c1ccccc1)c1ccc(Cl)cc1 [Clemastine] | Slightly soluble
17 | CN1CCN(C2=Nc3cc(Cl)ccc3Nc3ccccc32)CC1 [Clozapine] | Slightly
18 | CC1CC(OC(=O)C(O)c2ccccc2)CC(C)(C)C1 (centres unmarked) [Cyclandelate] | Insoluble
19 | O=C(O)Cc1ccccc1Nc1c(Cl)cccc1Cl [Diclofenac sodium] | Sparingly
20 | OCCN(CCO)c1nc(N2CCCCC2)c2nc(N(CCO)CCO)nc(N3CCCCC3)c2n1 [Dipyridamole] | Slightly
21 | CCCC(CCC)C(=O)O [Divalproex] | Slightly
22 | CC(CCc1ccc(O)cc1)NCCc1ccc(O)c(O)c1 (centres unmarked) [Dobutamine] | Sparingly
23 | COc1cc2nc(N3CCN(C(=O)C4COc5ccccc5O4)CC3)nc(N)c2cc1OC (centres unmarked) [Doxazosin] | Slightly
24 | CCCCCc1cc(O)c2c(c1)OC(C)(C)[C@@H]1CCC(C)=C[C@@H]21 [Dronabinol] | Insoluble
25 | CCOC(=O)[C@H](CCc1ccccc1)N[C@@H](C)C(=O)N1CCC[C@H]1C(=O)O [Enalapril] | Sparingly
26 | CCc1cccc2c3c([nH]c12)C(CC)(CC(=O)O)OCC3 (centres unmarked) [Etodolac] | Insoluble
27 | COc1cc([C@@H]2c3cc4c(cc3[C@@H](O[C@@H]3O[C@@H]5CO[C@@H](C)O[C@H]5[C@H](O)[C@H]3O)[C@H]3COC(=O)[C@H]23)OCO4)cc(OC)c1O [Etoposide] | Very Slightly
28 | CCOC(=O)C1=C(C)NC(C)=C(C(=O)OC)C1c1cccc(Cl)c1Cl (centres unmarked) [Felodipine] | Insoluble
29 | CC(C)(C)NC(=O)[C@H]1CC[C@H]2[C@@H]3CC[C@H]4NC(=O)C=C[C@]4(C)[C@H]3CC[C@]12C [Finasteride] | Insoluble
30 | OC(Cn1cncn1)(Cn1cncn1)c1ccc(F)cc1F [Fluconazole] | Slightly

Row | Structure (SMILES) | Solubility In Water
31 | OCCN1CCN(CCCN2c3ccccc3Sc3ccc(C(F)(F)F)cc32)CC1 [Fluphenazine] | Insoluble
32 | CC(C(=O)O)c1ccc(-c2ccccc2)c(F)c1 (centres unmarked) [Flurbiprofen] | Slightly
33 | COCCCC/C(=N\OCCN)c1ccc(C(F)(F)F)cc1 [Fluvoxamine] | Sparingly
34 | CC(C)Cc1ccc(C(C)C(=O)O)cc1 (centres unmarked) [Ibuprofen] | Insoluble
35 | CC1=C(/C=C/C(C)=C/C=C/C(C)=C\C(=O)O)C(C)(C)CCC1 [Isotretinoin] | Insoluble
36 | COC(=O)C1=C(C)NC(C)=C(C(=O)OC(C)C)C1c1cccc2nonc12 (centres unmarked) [Isradipine] | Insoluble
37 | CCC(C)n1ncn(-c2ccc(N3CCN(c4ccc(OCC5COC(Cn6cncn6)(c6ccc(Cl)cc6Cl)O5)cc4)CC3)cc2)c1=O (centres unmarked) [Itraconzole] | Insoluble
38 | CC(=O)N1CCN(c2ccc(OCC3COC(Cn4ccnc4)(c4ccc(Cl)cc4Cl)O3)cc2)CC1 (centres unmarked) [Ketoconazole] | Insoluble
39 | Nc1nnc(-c2cccc(Cl)c2Cl)c(N)n1 [Lamotrigine] | Slightly
40 | Cc1c(OCC(F)(F)F)ccnc1C[S+]([O-])c1nc2ccccc2[nH]1 (centres unmarked) [Lansoprazole] | Insoluble
41 | CC[C@H](C)C(=O)O[C@H]1C[C@@H](C)C=C2C=C[C@H](C)[C@H](CC[C@@H]3C[C@@H](O)CC(=O)O3)[C@H]21 [Lovastatin] | Insoluble
42 | Cc1cccc(Nc2ccccc2C(=O)O)c1C [Mefenamic acid] | Slightly
43 | Cc1ncc2n1-c1ccc(Cl)cc1C(c1ccccc1F)=NC2 [Midazolam] | Insoluble
44 | C[C@@H]1C[C@H]2[C@@H]3CCC4=CC(=O)C=C[C@]4(C)[C@@]3(Cl)[C@@H](O)C[C@]2(C)[C@@]1(O)C(=O)CCl [Mometasone] | Insoluble
45 | COc1ccc2cc(CCC(C)=O)ccc2c1 [Nabumetone] | Insoluble
46 | CO[C@]12C[C@@H](COC(=O)c3cncc(Br)c3)CN(C)[C@@H]1Cc1cn(C)c3cccc2c13 [Nicergoline] | Insoluble
47 | COc1ccc2[nH]c([S+]([O-])Cc3ncc(C)c(OC)c3C)nc2c1 (centres unmarked) [Omeprazole] | Slightly
48 | CC(=O)O[C@H]1C(=O)[C@@]2(C)[C@H]([C@H](OC(=O)c3ccccc3)[C@]3(O)C[C@H](OC(=O)[C@H](O)[C@@H](NC(=O)c4ccccc4)c4ccccc4)C(C)=C1C3(C)C)[C@]1(OC(C)=O)CO[C@@H]1C[C@@H]2O [Paclitaxel] | Insoluble
49 | O=C1NC(=O)C(c2ccccc2)(c2ccccc2)N1 [Phenytoin] | Insoluble
50 | CN1C(C(=O)Nc2ccccn2)=C(O)c2ccccc2S1(=O)=O [Piroxicam] | Sparingly
51 | CCOC(=O)[C@H](CCc1ccccc1)N[C@@H](C)C(=O)N1[C@H](C(=O)O)C[C@@H]2CCC[C@@H]21 [Ramipril] | Insoluble
52 | Cc1nc2n(c(=O)c1CCN1CCC(c3noc4cc(F)ccc34)CC1)CCCC2 [Risperidone] | Insoluble
53 | CC(=O)S[C@@H]1CC2=CC(=O)CC[C@]2(C)[C@H]2CC[C@@]3(C)[C@@H](CC[C@@]34CCC(=O)O4)[C@H]12 [Spironolactone] | Insoluble
54 | CN(C/C=C/C#CC(C)(C)C)Cc1cccc2ccccc12 [Terbinafine] | Slightly
55 | CC(C)(C)c1ccc(C(O)CCCN2CCC(C(O)(c3ccccc3)c3ccccc3)CC2)cc1 (centres unmarked) [Terfenadine] | Slightly
56 | C[C@]12CC[C@H]3[C@@H](CCC4=CC(=O)CC[C@@]43C)[C@@H]1CC[C@@H]2O [Testosterone] | Insoluble
57 | Cc1ccc(-c2nc3ccc(C)cn3c2CC(=O)N(C)C)cc1 [Zolpidem] | Sparingly

Assay: not given
Details: listing; cited from earlier work

Row | Structure (SMILES) | Bioavailability
58 | COc1ccc(CCN2CCC(Nc3nc4ccccc4n3Cc3ccc(F)cc3)CC2)cc1 [Astemizol] | Low-moderate
59 | CC(=O)OC[C@H]1O[C@@H]([S-])[C@H](OC(C)=O)[C@@H](OC(C)=O)[C@@H]1OC(C)=O.CCP(CC)CC.[Au+] [Auranofin] | Low
60 | OC(CCN1CCCCC1)(c1ccccc1)C1CC2C=CC1C2 (centres unmarked) [Biperiden] | Low
61 | CCCC1O[C@@H]2C[C@H]3[C@@H]4CCC5=CC(=O)C=C[C@]5(C)[C@H]4[C@@H](O)C[C@]3(C)[C@]2(C(=O)CO)O1 (some centres unmarked) [Budesonide] | Low
62 | COc1cc(N)c(Cl)cc1C(=O)NC1CCN(CCCOc2ccc(F)cc2)CC1OC (centres unmarked) [Cisapride] | Low
63 | CN1CCC[C@@H]1CCO[C@](C)(c1ccccc1)c1ccc(Cl)cc1 [Clemastine] | Low
64 | CC1CC(OC(=O)C(O)c2ccccc2)CC(C)(C)C1 (centres unmarked) [Cyclandelate] | Low
65 | C#C[C@]1(O)CC[C@H]2[C@@H]3CCC4=Cc5oncc5C[C@]4(C)[C@H]3CC[C@@]21C [Danazol] | Low
66 | CCCCCc1cc(O)c2c(c1)OC(C)(C)[C@@H]1CCC(C)=C[C@@H]21 [Dronabinol] | Low
67 | NC(N)=Nc1nc(CSCCC(N)=NS(N)(=O)=O)cs1 [Famotidine] | Low
68 | CCOC(=O)C1=C(C)NC(C)=C(C(=O)OC)C1c1cccc(Cl)c1Cl (centres unmarked) [Felodipine] | Low
69 | OCCN1CCN(CCCN2c3ccccc3Sc3ccc(C(F)(F)F)cc32)CC1 [Fluphenazine] | Low
70 | O=[N+]([O-])O[C@H]1CO[C@H]2[C@@H]1OC[C@H]2O[N+](=O)[O-] [Isosorbide dinitrate] | Low
71 | COC(=O)C1=C(C)NC(C)=C(C(=O)OC(C)C)C1c1cccc2nonc12 (centres unmarked) [Isradipine] | Low
72 | Nc1ccc(O)c(C(=O)O)c1 [Mesalamine] | Low
73 | COc1ccc2cc(CCC(C)=O)ccc2c1 [Nabumetone] | Low
74 | CCn1cc(C(=O)O)c(=O)c2cc(F)c(N3CCNCC3)cc21 [Norfloxacin] | Low
75 | OCCN1CCN(CCCN2c3ccccc3Sc3ccc(Cl)cc32)CC1 [Perphenazine] | Low
76 | CN[C@H]1CC[C@@H](c2ccc(Cl)c(Cl)c2)c2ccccc21 [Sertraline] | Low
77 | CC(=O)S[C@@H]1CC2=CC(=O)CC[C@]2(C)[C@H]2CC[C@@]3(C)[C@@H](CC[C@@]34CCC(=O)O4)[C@H]12 [Spironolactone] | Low
78 | C[C@]12CC[C@H]3[C@@H](CCC4=CC(=O)CC[C@@]43C)[C@@H]1CC[C@@H]2O [Testosterone] | Low

Assay: Solubility of therapeutic agents in water or ethanol
Details: not given

Row | Structure (SMILES) | solubility in ethanol | solubility in water
79 | OCc1cc(C(O)CNCCCCCCOCCCCc2ccccc2)ccc1O (centres unmarked) [salmeterol xinafoate] | slightly soluble in ethanol | practically insoluble in water
